Here are results for ten compounds from ChEMBL document CHEMBL1149917, “Peptidomimetic growth hormone secretagogues: synthesis and biological activities of analogs varied at the indole nucleus of the prototypical spiropiperidine L-162,752” (Bioorg Med Chem Lett, 1996).

This experiment is filed under the species Rattus norvegicus. Description: Compound was tested for intrinsic growth hormone(GH) secretory potency in the rat pituitary cell assay. It counts as functional. To be noted: Pituitary gland cell.
`CC(C)(N)CC(=O)N[C@H](COCc1ccccc1)C(=O)N1CCC2(CCc3ccccc32)CC1` displayed an EC50 of more than 1 µM.
For `CC(C)(N)C(=O)N[C@H](Cc1ccccc1)C(=O)N1CCC2(CCc3ccccc32)CC1`, a half-maximal response (EC50) required 0.25 µM.
As for `CC(C)(N)C(=O)N[C@H](Cc1cccc2ccccc12)C(=O)N1CCC2(CCc3ccccc32)CC1`, the EC50 stood at 1.1 µM.
For `C[C@@H](O)CNC(C)(C)CC(=O)N[C@H](COCc1ccccc1)C(=O)N1CCC2(CCc3ccccc32)CC1`, a half-maximal effect (EC50) was put at 0.24 µM.
In turn, `CC(C)(N)C(=O)N[C@H](Cc1ccc2ccccc2c1)C(=O)N1CCC2(CCc3ccccc32)CC1` returned an EC50 of 0.9 µM.
`C[C@@H](O)CNC(C)(C)CC(=O)N[C@H](CCc1ccccc1)C(=O)N1CCC2(CCc3ccccc32)CC1` returned a 50% effective concentration (EC50) of 0.2 µM.
For the compound `CC(C)(N)CC(=O)N[C@H](CCc1ccccc1)C(=O)N1CCC2(CCc3ccccc32)CC1`, the EC50 is more than 1 µM.
`CC(C)(N)C(=O)N[C@H](CSCc1ccccc1)C(=O)N1CCC2(CCc3ccccc32)CC1` gave an EC50 of 0.065 µM.
Compound `CC(C)(CC(=O)N[C@H](CCc1ccccc1)C(=O)N1CCC2(CCc3ccccc32)CC1)NC[C@H](O)CO` registered an EC50 of 0.17 µM.
Compound `CC(C)(N)C(=O)N[C@H](Cc1csc2ccccc12)C(=O)N1CCC2(CCc3ccccc32)CC1` gave an EC50 of 0.49 µM. This EC50 lies about 2.9-fold higher than the previous one.

The EC50 is the concentration needed to bring the measured effect to its halfway point. Lower therefore signals greater potency.
